# ChEMBL document CHEMBL1155692, “An unusual nitrogenous terphenyl derivative from fruiting bodies of the basidiomycete Sarcodon leucopus” (2000)
# How the values were obtained:
# P388 = assay: Cytotoxicity against mouse P388 cells; format: functional; conditions: read-out: ED50 (the source's name)
# KB = assay: Cytotoxicity against human KB cells; format: functional; conditions: read-out: ED50 (the source's name)
smiles,measurement,setting,value
CC[C@@H](C)[C@]12Oc3cc(-c4c(O)c(O)c(-c5ccc(OC(C)=O)cc5)c(OC(C)=O)c4OC(C)=O)ccc3O[N+]1([O-])C(O)=C([C@@H](C)CC)N(O)C2=O (some centres not stated) [SARCODONIN],EC50,P388,27 µg/mL
same,EC50,KB,10 µg/mL
